Our source for the Ki values is ChEMBL document CHEMBL1132933, “Protease inhibitors: synthesis and QSAR study of novel classes of nonbasic thrombin inhibitors incorporating sulfonylguanidine and O-methylsulfonylisourea moieties at P1” (J Med Chem, 2000).

pKi: −log10 of the molar value.

The Ki is a measure of affinity in units of concentration, obtained from inhibition or displacement. Low values mean tighter binding, high ones weaker binding. Broadly, the pKi is the Ki on a negative log10 scale, so that one unit is a factor of ten.

For one assay, the target named is Trypsin (Homo sapiens, UniProt P07477+P07478+P35030). The experiment in a line: Inhibitory activity against human trypsin (using Chromozym TH as the substrate). The assay is classed as protein assay.
The target of a further assay is Prothrombin (Homo sapiens, UniProt P00734). Put plainly: Inhibitory activity against human thrombin (using Chromozym TH as the substrate).

For `COC(=N)NS(=O)(=O)c1ccc(NC(=O)C2CCCN2C(=O)NS(=O)(=O)c2ccc(C)cc2)cc1` (centres undefined), the Ki on Trypsin was determined as 1500 nM. This molecule had a pKi on Prothrombin of 7.20.
Molecule `Cc1ccc(S(=O)(=O)NC(=O)N2CCCC2C(=O)Nc2ccc(S(=O)(=O)NN=C(N)N)cc2)cc1` (centres undefined) returned a Ki on Trypsin of 1530 nM. For the same molecule, the pKi at Prothrombin is 7.37.
Take `N=C(N)NS(=O)(=O)c1ccc(NC(=O)[C@@H](Cc2ccccc2)NC(=O)OCc2ccccc2)cc1`: on Trypsin, the Ki is 1285 nM. For the same molecule, at Prothrombin, the pKi is 7.27.
For `COC(=N)NS(=O)(=O)c1cc(Cl)cc(Cl)c1O`, in that order: 1550 nM and 6.77.
`Cc1ccc(S(=O)(=O)NC(=O)NCCC(=O)N[C@@H](Cc2c[nH]cn2)C(=O)Nc2ccc(S(=O)(=O)N=C(N)N)cc2)cc1` registered a Ki at Trypsin of 1350 nM. On Prothrombin, the pKi is 7.82.
For `CN(C)S(=O)(=O)N=C(N)N`, the Ki on Trypsin is 2890 nM.
As to `N=C(N)NNS(=O)(=O)c1ccc([N+](=O)[O-])cc1`, the Ki on Trypsin was determined as 990 nM. The molecule further had a pKi at Prothrombin of 6.78.
For `Cc1ccc(S(=O)(=O)NC(=O)N2CCC[C@H]2C(=O)NCC(=O)Nc2ccc(S(=O)(=O)N=C(N)N)cc2)cc1`, in that order: 1400 nM and 7.68.
The corresponding values for `Cc1ccc(S(=O)(=O)NC(=O)N[C@@H](Cc2ccccc2)C(=O)N2CCCC2C(=O)Nc2ccc(S(=O)(=O)N=C(N)N)cc2)cc1` (some centres undefined) are 1315 nM and 7.92.
For `CN(C)c1ccc(/N=N/c2ccc(S(=O)(=O)N=C(N)N)cc2)cc1`, in that order: 1245 nM and 6.87.
In the case of `N=C(N)NNS(=O)(=O)c1ccccc1[N+](=O)[O-]`, the Ki on Trypsin was 1800 nM. Besides, on Prothrombin, the pKi is 6.49.
For `COC(=N)NS(=O)(=O)c1ccc([N+](=O)[O-])c(Cl)c1`, the Ki on Trypsin came out at 1200 nM. This molecule also gave a pKi on Prothrombin of 6.75.
On Trypsin, `N=C(N)NCCCNC(=O)[C@@H]1CCCCN1C(=O)C(CC1CCCCC1)NCC(=O)O` (some centres undefined) came in with a Ki of 540 nM.
On Trypsin, `Cc1ccc(S(=O)(=O)NC(=O)N[C@@H](Cc2ccccc2)C(=O)N2CCCC2C(=O)Nc2ccc(S(=O)(=O)NN=C(N)N)cc2)cc1` (some centres undefined) displayed a Ki of 1450 nM. Further, the pKi on Prothrombin was 8.00.
As for `N=C(N)NS(=O)(=O)c1c(Br)c(Br)c(Br)c(Br)c1C(=O)O`, the Ki at Trypsin is 1250 nM. For the same molecule, the pKi at Prothrombin was 6.65.
For `COC(=N)NS(=O)(=O)C(F)(F)C(F)(F)C(F)(F)C(F)(F)F`, in that order: 2180 nM and 6.25.
For `COC(=N)NS(=O)(=O)c1ccc(OC)cc1`, in that order: 1460 nM and 6.56.
For `COC(=N)NS(=O)(=O)c1cccc2ccccc12`, in that order: 1425 nM and 6.81.
For `N=C(N)NNS(=O)(=O)c1ccc(NC(=O)[C@@H](Cc2ccccc2)NC(=O)OCc2ccccc2)cc1`, the Ki at Trypsin came out at 1315 nM. This molecule had a pKi on Prothrombin of 7.30.
The corresponding values for `N=C(N)NNS(=O)(=O)c1ccc(N)cc1` are 1425 nM and 7.04.
For `N=C(N)NNS(=O)(=O)c1ccc(I)cc1`, in that order: 1300 nM and 6.75.
On Trypsin, `N=C(N)NNS(=O)(=O)c1ccc2ccccc2c1` showed a Ki of 1285 nM. Moreover, the pKi at Prothrombin is 6.89.
The corresponding values for `Cc1ccc(S(=O)(=O)NN=C(N)N)cc1` are 1775 nM and 6.57.
The molecule `N=C(N)NS(=O)(=O)c1ccc([N+](=O)[O-])c(Cl)c1` had a Ki at Trypsin of 990 nM. The same molecule gave a pKi on Prothrombin of 6.80.
`COC(=N)NS(=O)(=O)c1ccc(/N=N/c2ccc(N(C)C)cc2)cc1` had a Ki at Trypsin of 1350 nM. Moreover, on Prothrombin, the negative logarithm of the Ki (pKi) is 6.77.
Regarding `COC(=N)NS(=O)(=O)c1ccc(NC(=O)[C@@H](Cc2ccccc2)NC(=O)OCc2ccccc2)cc1`, the Ki on Trypsin is reported as 1425 nM. In addition, the pKi on Prothrombin is 7.21.
For `N=C(N)NNS(=O)(=O)c1ccc([N+](=O)[O-])c(Cl)c1`, in that order: 1010 nM and 6.81.
The corresponding values for `N=C(N)NS(=O)(=O)C(F)(F)F` are 1275 nM and 6.05.
For `COC(=N)NS(=O)(=O)Cc1ccccc1`, in that order: 1900 nM and 6.35.
Regarding `N=C(N)NS(=O)(=O)c1ccc(Br)cc1`, the Ki on Trypsin is recorded as 1230 nM. The molecule further gave a negative logarithm of the Ki (pKi) on Prothrombin of 6.66.
Consider `COC(=N)NS(=O)(=O)c1ccc(OC)c(N)c1`, for which the Ki at Trypsin was 1235 nM. At Prothrombin, this molecule had a pKi of 7.02.
Molecule `Cc1ccc(S(=O)(=O)NC(=O)NCC(=O)N[C@@H](Cc2c[nH]cn2)C(=O)Nc2ccc(S(=O)(=O)N=C(N)N)cc2)cc1` gave a Ki on Trypsin of 1455 nM. The same molecule had a pKi on Prothrombin of 7.74.
The corresponding values for `N=C(N)NNS(=O)(=O)c1cccc([N+](=O)[O-])c1` are 1235 nM and 6.77.
`COC(=N)NS(=O)(=O)c1c(Br)c(Br)c(Br)c(Br)c1C(=O)O`: the Ki on Trypsin is 1300 nM. At Prothrombin, the pKi is 6.62.
On to `CN(C)c1cccc2c(S(=O)(=O)NN=C(N)N)cccc12`, for which the Ki at Trypsin came to 1200 nM. Besides, the pKi on Prothrombin is 6.89.
Consider `N=C(N)NNS(=O)(=O)c1c(Br)c(Br)c(Br)c(Br)c1C(=O)O`, for which the Ki on Trypsin was determined as 1200 nM. In addition, on Prothrombin, the pKi was 6.67.
The corresponding values for `CC(=O)Nc1ccc(S(=O)(=O)NN=C(N)N)cc1` are 1025 nM and 6.76.
For the molecule `Cc1ccc(S(=O)(=O)NC(=O)N[C@H](Cc2ccccc2)C(=O)Nc2ccc(S(=O)(=O)NN=C(N)N)cc2)cc1`, at Trypsin, the Ki came to 1340 nM. The molecule further had a pKi on Prothrombin of 7.36.
For `COC(=N)NS(=O)(=O)c1ccc(NC(=O)CNC(=O)[C@@H]2CCCN2C(=O)NS(=O)(=O)c2ccc(C)cc2)cc1`, in that order: 1540 nM and 7.57.
For `COC(=N)NS(=O)(=O)c1cccc2c(N(C)C)cccc12`, in that order: 1375 nM and 6.86.
For `COC(=N)NS(=O)(=O)c1ccc2ccccc2c1`, in that order: 1445 nM and 6.83.
In turn, `N=C(N)NS(=O)(=O)c1ccccc1[N+](=O)[O-]` came in with a Ki at Trypsin of 1850 nM. The same molecule gave a pKi at Prothrombin of 6.49.
The corresponding values for `COC(=N)NS(=O)(=O)c1cccc(N)c1` are 1370 nM and 7.00.
The corresponding values for `N=C(N)NS(=O)(=O)c1cccs1` are 1320 nM and 6.73.
The corresponding values for `CC1(C)C2CCC1(CS(=O)(=O)N=C(N)N)C(=O)C2` (centres undefined) are 980 nM and 6.49.
Turning to `N=C(N)NS(=O)(=O)c1ccccc1C(=O)O`, at Trypsin, the Ki stood at 1445 nM. This molecule gave a pKi on Prothrombin of 6.62.
As for `N=C(N)NNS(=O)(=O)c1cccc2ccccc12`, the Ki at Trypsin is recorded as 1200 nM. This molecule gave a pKi on Prothrombin of 6.90.
For `COC(=N)NS(=O)(=O)c1ccccc1[N+](=O)[O-]`, in that order: 2340 nM and 6.45.
For `N=C(N)NNS(=O)(=O)c1ccc(C(=O)O)cc1`, in that order: 1335 nM and 7.01.
For `COC(=N)NS(=O)(=O)c1cccc([N+](=O)[O-])c1`, in that order: 1375 nM and 6.67.
On Trypsin, `COC(=N)NS(=O)(=O)c1ccc(NC(=O)C2CCCN2C(=O)[C@H](Cc2ccccc2)NC(=O)NS(=O)(=O)c2ccc(C)cc2)cc1` (some centres undefined) had a Ki of 1420 nM. On Prothrombin, this molecule showed a pKi of 7.74.
`Cc1cc(C)c(S(=O)(=O)NN=C(N)N)c(C)c1` gave a Ki on Trypsin of 1100 nM. In addition, the pKi at Prothrombin was 6.66.
Take `COC(=N)NS(=O)(=O)N(C)C`: the Ki on Trypsin is 3300 nM. In addition, the pKi at Prothrombin is 5.86.
For `COC(=N)NS(=O)(=O)c1ccc([N+](=O)[O-])cc1`, in that order: 1235 nM and 6.72.
In the case of `COC(=N)NS(=O)(=O)c1ccc(C(=O)O)cc1`, the Ki on Trypsin is given as 1340 nM. At Prothrombin, this molecule showed a pKi of 6.88.
At Trypsin, `N=C(N)NS(=O)(=O)c1c(F)c(F)c(F)c(F)c1F` yielded a Ki of 1350 nM. Moreover, the pKi on Prothrombin was 6.84.
For `N=C(N)NS(=O)(=O)c1cccc(N)c1`, in that order: 1145 nM and 6.97.
The corresponding values for `N=C(N)NS(=O)(=O)c1cccc2ccccc12` are 1230 nM and 6.87.
At Trypsin, `N=C(N)NS(=O)(=O)c1cccc([N+](=O)[O-])c1` returned a Ki of 1100 nM. Further, the pKi at Prothrombin was 6.72.
For `N=C(N)NNS(=O)(=O)c1ccc(NC(=O)C2CCCN2C(=O)[C@H](Cc2ccccc2)NC(=O)OCc2ccccc2)cc1` (some centres undefined), on Trypsin, the Ki was found to be 1400 nM.
For `N=C(N)NS(=O)(=O)c1ccc(C(=O)O)cc1`, on Trypsin, the inhibitory constant (Ki) was found to be 1235 nM. This molecule also had a pKi on Prothrombin of 6.98.
For `COC(=N)NS(=O)(=O)c1ccc(F)cc1`, in that order: 1200 nM and 6.55.
The corresponding values for `N=C(N)NS(=O)(=O)Cc1ccccc1` are 1350 nM and 6.48.
On to `N=C(N)NS(=O)(=O)c1ccc(F)cc1`, for which, at Trypsin, the Ki is given as 1090 nM. The pKi on Prothrombin is 6.62.
For `Cc1ccc(S(=O)(=O)NC(=O)NCC(=O)N[C@@H](Cc2c[nH]cn2)C(=O)Nc2ccc(S(=O)(=O)NN=C(N)N)cc2)cc1`, in that order: 1555 nM and 7.82.
For `N=C(N)NS(=O)(=O)c1ccc2ccccc2c1`, in that order: 1300 nM and 6.88.
For `COC(=N)NS(=O)(=O)c1c(C)cc(C)cc1C`, in that order: 1785 nM and 6.46.
Turning to `CN(C)c1ccc(/N=N/c2ccc(S(=O)(=O)NN=C(N)N)cc2)cc1`, the Ki at Trypsin turned out to be 1355 nM. In addition, on Prothrombin, the pKi is 6.86.
For `N=C(N)NNS(=O)(=O)c1ccc(Cl)cc1`, in that order: 1100 nM and 6.67.
`COc1ccc(S(=O)(=O)NN=C(N)N)cc1N` came in with a Ki on Trypsin of 1100 nM. Moreover, at Prothrombin, the negative logarithm of the Ki (pKi) was 6.66.
With `COC(=N)NS(=O)(=O)c1ccc(NC(C)=O)cc1`, the Ki on Trypsin is listed as 1345 nM. On Prothrombin, the pKi was 6.69.
